In ChEMBL document CHEMBL1134926, “Structure-Activity relationships of 2-substituted 5,7-Diarylcyclopenteno[1,2-b]pyridine-6-carboxylic acids as a novel class of endothelin receptor antagonists” (Bioorg Med Chem Lett, 2002):

Tests used:
[1] = molecular target: T1, Endothelin receptor type B (Homo sapiens, UniProt P24530); test: Inhibitory activity against I-labeled ET-1 binding to Endothelin B receptor
T1 sequence (P24530 whole entry): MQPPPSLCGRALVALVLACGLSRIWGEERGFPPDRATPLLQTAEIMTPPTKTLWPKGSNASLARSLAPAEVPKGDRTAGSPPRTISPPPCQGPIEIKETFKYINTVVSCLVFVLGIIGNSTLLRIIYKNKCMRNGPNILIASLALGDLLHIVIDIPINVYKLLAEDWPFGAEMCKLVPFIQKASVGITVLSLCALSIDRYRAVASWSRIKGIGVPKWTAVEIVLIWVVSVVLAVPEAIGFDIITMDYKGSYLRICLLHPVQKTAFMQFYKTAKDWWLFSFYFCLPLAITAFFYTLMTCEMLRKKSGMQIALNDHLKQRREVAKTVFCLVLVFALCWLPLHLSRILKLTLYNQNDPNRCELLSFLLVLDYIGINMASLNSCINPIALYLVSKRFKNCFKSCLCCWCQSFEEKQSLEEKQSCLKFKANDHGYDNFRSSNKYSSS

[2] = molecular target: T2, Endothelin-1 receptor (Homo sapiens, UniProt P25101); test: Inhibitory activity against I-labeled ET-1 binding to Endothelin A receptor
T2 sequence (P25101 whole entry): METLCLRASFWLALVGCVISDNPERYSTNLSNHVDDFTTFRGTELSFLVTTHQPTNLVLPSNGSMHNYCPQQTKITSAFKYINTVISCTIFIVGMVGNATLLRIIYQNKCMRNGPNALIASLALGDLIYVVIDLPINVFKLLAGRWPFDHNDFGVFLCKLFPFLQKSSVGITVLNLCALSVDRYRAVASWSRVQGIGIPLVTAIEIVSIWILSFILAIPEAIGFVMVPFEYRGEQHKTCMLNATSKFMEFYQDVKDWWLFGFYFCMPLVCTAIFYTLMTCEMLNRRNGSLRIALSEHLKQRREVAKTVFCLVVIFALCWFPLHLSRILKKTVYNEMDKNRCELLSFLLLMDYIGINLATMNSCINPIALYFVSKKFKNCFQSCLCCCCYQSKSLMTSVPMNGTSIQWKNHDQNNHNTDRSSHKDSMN

[3] = molecular target: Endothelin receptor, ET-A/ET-B (Homo sapiens) (UniProt P24530+P25101); test: Selectivity was calculated as the ratio of IC50 of Endothelin B receptor / IC50 of Endothelin A receptor; format: protein assay

Row | SMILES | IC50 [1] | IC50 [2] | Ratio [3]
1 | C=CCCc1ccc2c(n1)[C@@H](c1ccc(OC)cc1)[C@H](C(=O)O)[C@H]2c1ccc2c(c1)OCO2 | 14 nM | 0.2 nM | 70
2 | COc1ccc([C@@H]2c3nc(CC(C)C)ccc3[C@H](c3ccc4c(c3)OCO4)[C@H]2C(=O)O)cc1 | 8.4 nM | 0.32 nM | 26
3 | CCc1ccc2c(n1)[C@@H](c1ccc(OC)cc1)[C@H](C(=O)O)[C@H]2c1ccc2c(c1)OCO2 | 87 nM | 4.5 nM | 19
4 | COc1ccc([C@@H]2c3ncccc3[C@H](c3ccc4c(c3)OCO4)[C@H]2C(=O)O)cc1 | 410 nM | 2.4 nM | 170
5 | CCCCc1ccc2c(n1)[C@@H](c1ccc(OC)cc1)[C@H](C(=O)O)[C@H]2c1ccc2c(c1)OCO2 | 11 nM | 0.21 nM | 52
6 | COc1ccc([C@@H]2c3nc(C)ccc3[C@H](c3ccc4c(c3)OCO4)[C@H]2C(=O)O)cc1 | 100 nM | 5.7 nM | 18
7 | CCCc1ccc2c(n1)[C@@H](c1ccc(OC)cc1)[C@H](C(=O)O)[C@H]2c1ccc2c(c1)OCO2 | 30 nM | 0.37 nM | 81
8 | CCCCCc1ccc2c(n1)[C@@H](c1ccc(OC)cc1)[C@H](C(=O)O)[C@H]2c1ccc2c(c1)OCO2 | 9.1 nM | 1.9 nM | 4.8
9 | COc1ccc([C@@H]2c3nc(C4CC4)ccc3[C@H](c3ccc4c(c3)OCO4)[C@H]2C(=O)O)cc1 | 63 nM | 1.6 nM | 39
10 | COc1ccc([C@@H]2c3nc(N4CCCC4)ccc3C(c3ccc4c(c3)OCO4)[C@H]2C(=O)O)cc1 (single isomer, unassigned) | 21 nM | 2.2 nM | 9.5
11 | COc1ccc([C@@H]2c3nc(-c4ccccc4)ccc3C(c3ccc4c(c3)OCO4)[C@H]2C(=O)O)cc1 (single isomer, unassigned) | 130 nM | 15 nM | 8.7
12 | COc1ccc([C@@H]2c3nc(N(C)C(C)C)ccc3C(c3ccc4c(c3)OCO4)[C@H]2C(=O)O)cc1 (single isomer, unassigned) | 14 nM | 3.2 nM | 4.4
13 | CCCSc1ccc2c(n1)[C@@H](c1ccc(OC)cc1)[C@H](C(=O)O)C2c1ccc2c(c1)OCO2 (single isomer, unassigned) | 53 nM | 8.2 nM | 6.5
14 | CCNCc1ccc2c(n1)[C@@H](c1ccc(OC)cc1)[C@H](C(=O)O)C2c1ccc2c(c1)OCO2 (single isomer, unassigned) | 940 nM | 7 nM | 130
15 | CCCOc1ccc2c(n1)[C@@H](c1ccc(OC)cc1)[C@H](C(=O)O)C2c1ccc2c(c1)OCO2 (single isomer, unassigned) | 65 nM | 0.92 nM | 71
16 | COc1ccc([C@@H]2c3nc(CCC(=O)O)ccc3C(c3ccc4c(c3)OCO4)[C@H]2C(=O)O)cc1 (single isomer, unassigned) | 530 nM | 150 nM | 3.5
17 | COc1ccc([C@@H]2c3nc(CCCO)ccc3C(c3ccc4c(c3)OCO4)[C@H]2C(=O)O)cc1 (single isomer, unassigned) | 190 nM | 0.55 nM | 350
18 | CCOCc1ccc2c(n1)[C@@H](c1ccc(OC)cc1)[C@H](C(=O)O)C2c1ccc2c(c1)OCO2 (single isomer, unassigned) | 140 nM | 0.51 nM | 270
19 | CCCNc1ccc2c(n1)[C@@H](c1ccc(OC)cc1)[C@H](C(=O)O)C2c1ccc2c(c1)OCO2 (single isomer, unassigned) | 63 nM | 0.12 nM | 520
20 | COc1ccc([C@@H]2c3nc(NC(C)C)ccc3C(c3ccc4c(c3)OCO4)[C@H]2C(=O)O)cc1 (single isomer, unassigned) | 42 nM | 0.1 nM | 420
